Measured values from publication PMC9385959, “Mammalian derived lipocalin and secretoglobin respiratory allergens strongly bind ligands with potentially immune modulating properties” (Frontiers in Allergy, 2022).
Read-outs that look alike come from different tables or passages of the source.

Tests used:
Ory c 2 = test: Competitive fluorescence-quenching assay, Ory c 2; format: binding, rabbit; conditions: for Mean fluorescence inhibition: 5 μM Ory c 2-1-AMA complex, 50 μM ligand, n = 2
Procedure: (§1) Fluorescence quenching assays were performed as previously described ([45]), with modifications. Fluorochromes and ligands were purchased from Sigma Aldrich (Steinheim, Germany), Carl Roth (Karlsruhe, Germany) and TCI Europe N.V. (Zwijndrecht, Belgium).
(§2) Stock solutions were prepared at a concentration of 10 mM in 100% ethanol for the fluorochromes 1-aminoanthracene (1-AMA), 8-anilino-1-naphthalensulfonic acid (1,8-ANS) and for all ligands, and in 100% methanol for n-phenyl-1-naphthylamine (1-NPN), respectively. Iron catecholate ligands (siderophores) were prepared as previously described ([46]). Fluorochrome-protein complexes were analyzed at an equimolar concentration of 5 μM in PBS with 5% ethanol in a volume of 100 μL per well in black 96-well non-binding microplates (Greiner Bio-One GmbH, Frickenhausen, Germany). Solutions containing only protein or the respective fluorescent probe in PBS with 5% ethanol served as controls. Fluorochrome-protein complexes were incubated with orbital shaking for 10 min at 500 rpm at room temperature (RT) before measurement using the fluorescence reader TECAN Infinite 200 Pro (Tecan Trading AG, Switzerland). Excitation wavelengths were fixed at 380 nm for 1-AMA and 1,8-ANS, and 337 nm for 1-NPN. Fluorescence emission spectra were recorded in 5 nm steps between 420 and 560 nm for 1-AMA and 1,8-ANS and between 380 and 500 nm for 1-NPN. The establishment of fluorescent quenching assay parameters for each allergen is explained in the results Section Fluorescence-quenching assay set up. Binding affinities were analyzed by non-linear regression in GraphPad Prism Version 9.3.1 (GraphPad Software, LLC). For the ligand competition assays, ligands were added to fluorochrome-allergen complexes with a final buffer composition of 5% ethanol in PBS in a volume of 100 μL and incubated for 30 min at 500 rpm at RT and further equilibrated for another 30 min without shaking before fluorescence measurement.
(§3) The binding affinities of non-fluorescent ligands is inferred to by their ability to compete and displace the fluorochromes bound to the allergen at a certain concentration. This leads to a measurable decrease in fluorescence intensity that will be expressed as fluorescence inhibition (Figure 6). For a given allergen, the ligand with the strongest inhibition has the highest binding affinity. […] Competitive ligand binding was analyzed by non-linear regression and inhibitory dissociation constants (Ki) were calculated.

Cav p 1.0101 = Cav p 1.0101 (Cavia porcellus, UniProt A0A484HM70, S19A); test: Competitive fluorescence-quenching assay, Cav p 1.0101; format: binding, guinea pig; conditions: for Mean fluorescence inhibition / inhibition at 50 µM: 5 μM Cav p 1.0101-1-AMA complex, 50 μM ligand, n = 2
Procedure: as §1, §2, §3

Cav p 1.0201 = Cav p 1.0201 (Cavia porcellus, UniProt A0A484HRI4); test: Competitive fluorescence-quenching assay, Cav p 1.0201; format: binding, guinea pig; conditions: for Mean fluorescence inhibition / inhibition at 50 µM: 5 μM Cav p 1.0201-1-AMA complex, 50 μM ligand, n = 2
Procedure: as §1, §2, §3

Fel d 1 = molecular target: T1, Fel d 1 (Felis catus, UniProt P30438+P30440); test: Competitive fluorescence-quenching assay, Fel d 1; format: binding, cat; conditions: for Ki: Ligand inhibition constant Ki
T1 construct: polyhistidine tag (C); made in house; host or cells: E. coli Rosetta-gami 2
T1 sequence (P30438+P30440 with tags, fused parts or gaps): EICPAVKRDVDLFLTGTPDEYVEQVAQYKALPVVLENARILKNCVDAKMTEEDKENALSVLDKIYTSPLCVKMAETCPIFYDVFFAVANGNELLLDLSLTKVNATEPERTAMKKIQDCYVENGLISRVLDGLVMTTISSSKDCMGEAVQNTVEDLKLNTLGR
Procedure: as §1, §2, §3

Ory c 3 = Ory c 3 (Oryctolagus cuniculus, UniProt Q9GK63+Q9GK67); test: Competitive fluorescence-quenching assay, Ory c 3; format: binding, rabbit; conditions: for inhibition at 50 µM: read-out: Mean fluorescence inhibition
Procedure: as §1, §2, §3

Can f 6 = molecular target: T2, Can f 6 (Canis lupus familiaris, UniProt H2B3G5); test: Competitive fluorescence-quenching assay, Can f 6; format: binding, dog; conditions: for inhibition at 100 µM: read-out: Mean fluorescence inhibition; for Ki: 5 μM Can f 6, fluorochrome 1-NPN, to be interpreted with caution, imprecise Ki values, read-out: Ligand inhibition constant Ki
T2 construct: polyhistidine tag (C); made in house; host or cells: E. coli Rosetta-gami 2
T2 sequence (H2B3G5 16-190): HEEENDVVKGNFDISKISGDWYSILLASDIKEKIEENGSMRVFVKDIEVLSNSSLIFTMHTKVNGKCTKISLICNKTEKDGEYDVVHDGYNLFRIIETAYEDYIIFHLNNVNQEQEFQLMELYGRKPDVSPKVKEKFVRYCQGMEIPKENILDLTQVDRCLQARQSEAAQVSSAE
Procedure: as §1, §2, §3

Fel d 4 = molecular target: T3, Fel d 4 (Felis catus, UniProt Q5VFH6); test: Competitive fluorescence-quenching assay, Fel d 4; format: binding, cat; conditions: for inhibition at 100 µM: read-out: Mean fluorescence inhibition; for Ki: 5 μM Fel d 4, fluorochrome 1-NPN, to be interpreted with caution, imprecise Ki values, read-out: Ligand inhibition constant Ki
T3 construct: polyhistidine tag (C); made in house; host or cells: E. coli Rosetta-gami 2
T3 sequence (Q5VFH6 16-186): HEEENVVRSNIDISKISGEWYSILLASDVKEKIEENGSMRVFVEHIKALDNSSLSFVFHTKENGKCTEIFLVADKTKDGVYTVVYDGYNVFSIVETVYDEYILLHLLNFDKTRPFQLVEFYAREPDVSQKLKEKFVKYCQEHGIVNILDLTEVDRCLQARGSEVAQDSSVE
Procedure: as §1, §2, §3

Can f 1 = molecular target: T4, Can f 1 (Canis lupus familiaris, UniProt O18873); test: Competitive fluorescence-quenching assay, Can f 1; format: binding, dog; conditions: for inhibition at 50 µM: read-out: Mean fluorescence inhibition
T4 construct: made in house; host or cells: E. coli Rosetta-gami 2(DE3)
Procedure: as §1, §2, §3

human LCN1 = molecular target: T5, human LCN1 (Homo sapiens, UniProt P31025); test: Competitive fluorescence-quenching assay, LCN1; format: binding; conditions: for inhibition at 50 µM: 5 μM LCN1-1,8-ANS complex, 50 μM ligand, n = 2
T5 construct: made in house; host or cells: E. coli Rosetta-gami 2(DE3)
Procedure: as §1, §2, §3

[1] = read-out: Mean fluorescence inhibition, 5 μM Fel d 1 + 1,8-ANS complex, 100 μM ligand
[2] = read-out: Mean fluorescence inhibition, 5 μM Fel d 1 + 1-NPN complex, 100 μM ligand
[3] = 5 μM Ory c 3-1-AMA complex, 50 μM ligand, n = 2
[4] = 5 μM Fel d 1 + 1,8-ANS complex, 100 μM ligand, read-out: Mean fluorescence inhibition
[5] = 5 μM Fel d 1 + 1-NPN complex, 100 μM ligand, read-out: Mean fluorescence inhibition
[6] = 5 μM Can f 6-1-NPN complex, 100 μM ligand, high standard error
[7] = 5 μM Fel d 4-1-NPN complex, 100 μM ligand
[8] = 5 μM Fel d 1 + 1,8-ANS complex, 100 μM ligand

## CC(C)=CCCC(C)=CC#N [Geranyl nitrile, geranyl nitrile]
Ory c 2
  Mean fluorescence inhibition: 91.2%
Cav p 1.0101
  Mean fluorescence inhibition: 57.4%
Cav p 1.0201
  Mean fluorescence inhibition: 89.1%

## CCCc1ccc(O)cc1 [4-Propylphenol, 4-propylphenol]
Ory c 2; 5 μM Ory c 2, fluorochrome 1-AMA, read-out: Ligand inhibition constant Ki
  Ki: 2.6 µM
Ory c 2
  Mean fluorescence inhibition: 93.2%
Fel d 1; [1]
  inhibition at 100 µM: 52.8%
Fel d 1; [2]
  inhibition at 100 µM: 65.3%
Cav p 1.0101
  inhibition at 50 µM: 65.7%
Cav p 1.0201
  inhibition at 50 µM: 57%
Ory c 3; [3]
  inhibition at 50 µM: 93.2%

## CC(C)CCC[C@@H](C)[C@H]1CC[C@H]2[C@@H]3CC=C4C[C@@H](O)CC[C@]4(C)[C@H]3CC[C@]12C [cholesterol]
Cav p 1.0101
  Mean fluorescence inhibition: not observed
Cav p 1.0201
  Mean fluorescence inhibition: not observed

## CCCCCCCCCC(=O)O [Decanoic acid, decanoic acid]
Fel d 1; [1]
  inhibition at 100 µM: 71.2%
Fel d 1; [2]
  inhibition at 100 µM: 101%
Ory c 3; [3]
  inhibition at 50 µM: 76.1%

## CC(C)CCCC(C)CCO (centres unmarked) [3,7-dimethyl-1-octanol]
Ory c 2
  Mean fluorescence inhibition: 72.5%
Fel d 1; [4]
  inhibition at 100 µM: 58.3%
Fel d 1; [5]
  inhibition at 100 µM: 85.4%
Can f 6; [6]
  inhibition at 100 µM: 100%
Cav p 1.0101
  inhibition at 50 µM: 96.4%
Fel d 4; [7]
  inhibition at 100 µM: 89.5%
Cav p 1.0201
  inhibition at 50 µM: 80.3%
Ory c 3; [3]
  inhibition at 50 µM: 91.1%

## CC1=C(/C=C/C(C)=C/C=C/C(C)=C/CO)C(C)(C)CCC1 [Retinol, retinol]
Can f 1; 5 μM Can f 1-1,8-ANS complex, 50 μM ligand, n = 2
  inhibition at 50 µM: 49%
Human LCN1
  inhibition at 50 µM: 84.3%

## CCCCCCCCCCCCCCCO [Pentadecanol, pentadecanol]
Ory c 2
  Mean fluorescence inhibition: 20.8%
Cav p 1.0101
  Mean fluorescence inhibition: 51.3%
Cav p 1.0201
  Mean fluorescence inhibition: 94.5%

## CCCCC/C=C\C/C=C\C/C=C\C/C=C\CCCC(=O)O [Arachidonic acid, arachidonic acid]
Can f 1
  Ki: 1.3 µM
  inhibition at 50 µM: 86.4%
Human LCN1; 5 μM LCN1, fluorochrome 1,8-ANS, read-out: Ligand inhibition constant Ki
  Ki: 1.9 µM
Human LCN1
  inhibition at 50 µM: 96.7%

## CCCCCCCCCCO [1-Decanol, 1-decanol]
Ory c 2
  Mean fluorescence inhibition: 75.1%
Fel d 1; [1]
  inhibition at 100 µM: 68.4%
Cav p 1.0101
  inhibition at 50 µM: 99%
Cav p 1.0101; Ligand inhibition constant Ki, 5 μM Cav p 1.0101, fluorochrome 1-AMA
  Ki: 0.8 µM
Cav p 1.0201
  Ki: 1.1 µM
  inhibition at 50 µM: 98.2%
Ory c 3
  Ki: 0.7 µM
Ory c 3; [3]
  inhibition at 50 µM: 98%

## monophosphoryl lipid A [MPLA]
Cav p 1.0101
  Mean fluorescence inhibition: more than half
Cav p 1.0201
  Mean fluorescence inhibition: more than half
Ory c 3; [3]
  Mean fluorescence inhibition: more than half

## CCCCCCCCN [Octanamine, octanamine]
Fel d 1; [8]
  Mean fluorescence inhibition: 37.7%
Fel d 1; 5 μM Fel d 1 + 1-NPN complex, 100 μM ligand
  Mean fluorescence inhibition: 81.1%
Can f 6
  Ki: 273 µM
Can f 6; [6]
  Mean fluorescence inhibition: 148.7%
Fel d 4; [7]
  Mean fluorescence inhibition: 94.9%
Ory c 3; [3]
  Mean fluorescence inhibition: 54.7%

## COc1nccnc1CC(C)C [IBMP, 2-isobutyl-3-methoxypyrazine]
Can f 6
  Ki: 49.6 µM
Can f 6; [6]
  inhibition at 100 µM: 118%
Fel d 4
  Ki: 39.2 µM
Fel d 4; [7]
  inhibition at 100 µM: 96.8%

## CC(C)c1ccccc1O [2-Isopropylphenol, 2-isopropylphenol]
Can f 6; [6]
  inhibition at 100 µM: 105%
Fel d 4
  Ki: 20.1 µM
Fel d 4; [7]
  inhibition at 100 µM: 99.5%

## CC(C)c1cccc(O)c1 [3-Isopropylphenol, 3-ilsopropylphenole]
Ory c 2
  Mean fluorescence inhibition: 89.5%
Can f 6; [6]
  inhibition at 100 µM: 107%
Cav p 1.0101
  inhibition at 50 µM: 55.3%
Fel d 4; [7]
  inhibition at 100 µM: 89.5%
Cav p 1.0201
  inhibition at 50 µM: 75.7%

## CCCCCCCCO [Caprylic alcohol, 1-octanol]
Ory c 2
  Mean fluorescence inhibition: 65.3%
Fel d 1; [4]
  inhibition at 100 µM: 56.5%
Fel d 1; [5]
  inhibition at 100 µM: 49.2%
Cav p 1.0101
  inhibition at 50 µM: 86.7%
Cav p 1.0201
  inhibition at 50 µM: 82.1%
Ory c 3; [3]
  inhibition at 50 µM: 68.8%

## C[C@]12CC[C@H]3[C@@H](CCC4=CC(=O)CC[C@@]43C)[C@@H]1CC[C@@H]2O [Testosterone, testosterone]
Can f 6
  inhibition at 100 µM: 43.7%
Cav p 1.0101
  Mean fluorescence inhibition: not observed
Fel d 4
  inhibition at 100 µM: 92.2%
Cav p 1.0201
  Mean fluorescence inhibition: not observed

## CCCCCCCCCCCC(=O)O [Dodecanoic acid, dodecanoic acid]
Fel d 1; 5 μM Fel d 1, fluorochrome 1,8-ANS
  Ki: 26.7 µM
Fel d 1; 5 μM Fel d 1, fluorochrome 1-NPN
  Ki: 14.4 µM
Fel d 1; [1]
  inhibition at 100 µM: 75.2%
Fel d 1; [2]
  inhibition at 100 µM: 91.7%
Ory c 3
  inhibition at 50 µM: 76.2%

## CCCCCCCCCCCCO [1-Dodecanol, 1-dodecanol]
Ory c 2
  Mean fluorescence inhibition: 84.6%
Fel d 1; [4]
  inhibition at 100 µM: 44.2%
Cav p 1.0101
  inhibition at 50 µM: 98.9%
Cav p 1.0201
  inhibition at 50 µM: 97%
Ory c 3; [3]
  inhibition at 50 µM: 95.6%

## CCCCCCCCCCCCCCO [Tetradecanol, tetradecanol]
Ory c 2
  Mean fluorescence inhibition: 55.4%
Fel d 1; [8]
  Mean fluorescence inhibition: 0.0%
Cav p 1.0101
  Mean fluorescence inhibition: 82.4%
Cav p 1.0201
  Mean fluorescence inhibition: 97.9%
Ory c 3; [3]
  Mean fluorescence inhibition: 92.9%
